Data set [1] concerns β2N289S knock-in and wildtype mice. In words: Loss of righting reflex (LORR) as behavioural measure of anesthesia. It counts as in vivo, mouse. How it is done:
Loss of righting reflex (LORR) was used as a crude behavioural measure of anesthesia. Mice (n=11 wildtype, n=10 knock-in for each dose) were dosed intraperitoneally (i.p.) with 20, 30 or 40 mg/kg etomidate. Each mouse was placed in a separate cage and tested for LORR by gently rolling the mouse on it back. When the righting reflex had disappeared (usually around 90 seconds) the mouse was laid on it back on a piece of corrugated plastic and the time until righting reflex was regained was recorded. In order to avoid excessive heat loss during anesthesia a heat lamp was placed above the mice. To control for non-specific changes in anesthetic sensitivity induced by the mutation two different classes of anesthetics were also tested in this model: pentobarbitone, 50 mg/kg i.p. (n=11) and midazolam, 80 mg/kg i.p. (n=5).

The target in data set [2] is T1, human GABAA receptor β2 subunit (position 289 mutant) (Homo sapiens, UniProt P14867+P47870, N289S).
T1 construct: expressed in transfected cells
T1 sequence (P47870 25-512 N289S limits assumed): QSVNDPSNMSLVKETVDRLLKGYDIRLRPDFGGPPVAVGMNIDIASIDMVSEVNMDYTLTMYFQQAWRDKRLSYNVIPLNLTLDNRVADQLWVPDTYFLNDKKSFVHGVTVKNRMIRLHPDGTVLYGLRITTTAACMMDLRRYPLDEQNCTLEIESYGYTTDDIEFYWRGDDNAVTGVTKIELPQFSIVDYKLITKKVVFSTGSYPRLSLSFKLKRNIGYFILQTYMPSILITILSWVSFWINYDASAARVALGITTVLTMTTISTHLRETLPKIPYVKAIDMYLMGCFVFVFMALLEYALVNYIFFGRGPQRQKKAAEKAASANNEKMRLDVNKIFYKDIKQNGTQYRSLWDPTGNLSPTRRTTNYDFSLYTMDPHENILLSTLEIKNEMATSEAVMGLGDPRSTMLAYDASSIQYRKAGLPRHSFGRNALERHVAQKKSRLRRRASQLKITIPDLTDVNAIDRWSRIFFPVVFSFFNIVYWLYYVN
T1 sequence (P14867 28-456): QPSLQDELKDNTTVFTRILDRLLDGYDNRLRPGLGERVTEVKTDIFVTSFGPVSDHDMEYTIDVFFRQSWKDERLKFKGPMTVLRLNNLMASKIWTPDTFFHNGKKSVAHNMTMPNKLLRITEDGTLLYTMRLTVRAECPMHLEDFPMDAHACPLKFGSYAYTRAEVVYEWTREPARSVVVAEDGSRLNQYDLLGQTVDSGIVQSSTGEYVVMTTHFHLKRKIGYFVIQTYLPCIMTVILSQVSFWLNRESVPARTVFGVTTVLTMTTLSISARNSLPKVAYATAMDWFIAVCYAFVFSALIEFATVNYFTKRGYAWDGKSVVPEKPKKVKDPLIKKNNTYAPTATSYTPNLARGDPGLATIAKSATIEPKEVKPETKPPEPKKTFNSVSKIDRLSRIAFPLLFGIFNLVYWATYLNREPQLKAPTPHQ
T1 sequence (P18507 40-467 partner limits assumed): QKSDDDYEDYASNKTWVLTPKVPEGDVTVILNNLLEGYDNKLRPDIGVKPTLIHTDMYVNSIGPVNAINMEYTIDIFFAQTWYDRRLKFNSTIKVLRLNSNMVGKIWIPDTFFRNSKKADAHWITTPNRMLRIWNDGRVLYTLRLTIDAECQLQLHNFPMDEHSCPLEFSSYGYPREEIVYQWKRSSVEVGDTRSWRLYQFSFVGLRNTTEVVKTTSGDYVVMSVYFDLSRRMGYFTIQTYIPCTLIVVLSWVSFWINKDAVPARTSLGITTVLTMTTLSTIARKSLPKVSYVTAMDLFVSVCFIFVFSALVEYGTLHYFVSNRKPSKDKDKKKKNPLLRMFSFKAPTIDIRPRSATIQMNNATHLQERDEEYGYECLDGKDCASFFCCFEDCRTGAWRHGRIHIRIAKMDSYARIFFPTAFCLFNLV
As to conditions: recombinant receptors expressed in cell lines; cited from earlier work.

The test system of data set [3] is β2N289S knock-in and wildtype mice. In words: Level of anaesthesia by electroencephalography (EEG burst suppression). As to conditions: 12.5 mg/kg intravenous; FIG. 4. It counts as in vivo, mouse. How it is done: In order to compare the depth of anaesthesia in both genotypes, wildtype (n=4) and knock-in (n=4) mice were implanted with radiotelemetry transmitters for the measurement of electroencephalographic (EEG) data. Mice were allowed to recover from the surgical procedure for 14-21 days before experiment. Mice were dosed with 12.5 mg/kg etomidate by the intravenous route and EEG data was continuously sampled. Data sampled at 250 Hz (transmitter bandwidth 0.5-100 Hz, low pass data filter 70 Hz). Data analysed using Somnologica 3 in 100 mSec epochs for % suppression activity per minute. Isoelectric window defined as waveform amplitude less than 5 μV (typical peak to peak amplitude ˜250 μV).

Data set [4] has the same test system. Description: Post-anaesthetic slow wave sleep by EEG (hypnotic hangover). It counts as in vivo, mouse. As to conditions: 12.5 mg/kg intravenous, FIG. 5. The method, then: In order to quantify the amount of post-anaesthetic sleep, wildtype (n=4) and knock-in (n=4) mice were implanted with radiotelemetry transmitters for the measurement of electroencephalographic (EEG) data. Mice were allowed to recover from the surgical procedure for 13 days before experiment. Baseline EEG data was recorded on day 1 of the experimental protocol. On the 2nd experimental day, mice were dosed with 12.5 mg/kg etomidate by the intravenous route and EEG data was continuously sampled. EEG data sampled at 250 Hz (transmitter bandwidth 0.5-100 Hz, low pass data filter 70 Hz). Data analysed using Somnologica 3 in 8 sec epochs and scored for either “wake” or “slow wave sleep” according to standard electrophysiological criteria (van Gool, W. A. & Mirmiran, M., Sleep, 9, 335 (1986)). Following recovery from etomidate anaesthesia, the amount of slow wave sleep was expressed as percentage of the circadian timed matched baseline.

Data set [5] shares this test system. Description: Rotarod test of motor co-ordination: recovery following etomidate anesthesia. Format: in vivo, mouse. As to conditions: for time mice could stay on rotarod: 90 minutes after testing began, rod 16 rpm, 120 second trial. The method, then: Wildtype (n=30) and knock-in (n=30) mice were trained to perform the rotarod test of motor co-ordination. Mice were placed on a rod revolving at 16 rpm and the time taken for them to fall off recorded. Each mouse was given successive training trials until it could remain on the rod for 3 consecutive trials of 120 second duration. Mice were then split into 3 groups (n=10 for each genotype) and dosed i.p. with 15, 20 or 30 mg/kg etomidate. Mice were then placed back on the rotarod every 10 minutes (for 90 minutes), starting from the mean time for recovery of righting reflex for a given dose (obtained from experiment 1). In this way the rate of recovery of the ability to perform a motor task could be assessed.

For data set [6], the target named is GABAA receptor β3 subunit N289S (Homo sapiens, UniProt P28472+Q16445, N290S). Conditions: asparagine 289 of β3 to serine; cited from earlier work.
Sequence of GABAA receptor β3 subunit N289S (P28472 26-473 N290S, one chain of several): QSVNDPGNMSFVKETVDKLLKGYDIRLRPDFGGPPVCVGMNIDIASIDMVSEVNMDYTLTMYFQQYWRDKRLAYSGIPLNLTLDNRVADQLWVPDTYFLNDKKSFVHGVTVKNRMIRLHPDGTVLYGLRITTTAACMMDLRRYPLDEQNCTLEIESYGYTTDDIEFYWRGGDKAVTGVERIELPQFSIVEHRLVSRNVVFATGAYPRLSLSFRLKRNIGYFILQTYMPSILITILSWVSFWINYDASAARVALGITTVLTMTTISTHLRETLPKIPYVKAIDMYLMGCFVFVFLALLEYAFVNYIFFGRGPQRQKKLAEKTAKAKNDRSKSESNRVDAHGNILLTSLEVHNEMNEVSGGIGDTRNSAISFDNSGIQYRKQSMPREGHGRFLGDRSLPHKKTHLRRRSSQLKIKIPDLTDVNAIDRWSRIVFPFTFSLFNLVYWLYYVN
Sequence of GABAA receptor β3 subunit N289S (Q16445 20-453, one chain of several): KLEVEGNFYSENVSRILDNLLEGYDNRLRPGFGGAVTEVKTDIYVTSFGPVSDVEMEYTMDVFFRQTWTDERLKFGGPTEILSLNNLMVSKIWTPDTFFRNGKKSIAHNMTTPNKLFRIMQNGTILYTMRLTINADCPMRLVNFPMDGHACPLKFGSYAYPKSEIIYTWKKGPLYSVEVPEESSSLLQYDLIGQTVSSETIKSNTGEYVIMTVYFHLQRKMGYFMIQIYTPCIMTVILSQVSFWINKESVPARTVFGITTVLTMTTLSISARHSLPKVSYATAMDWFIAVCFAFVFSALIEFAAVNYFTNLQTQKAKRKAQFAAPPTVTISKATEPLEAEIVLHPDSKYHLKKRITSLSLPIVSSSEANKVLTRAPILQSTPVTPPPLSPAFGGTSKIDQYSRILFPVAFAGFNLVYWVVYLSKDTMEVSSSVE
The subject of another data set is GABAA receptors. As to conditions: cited from earlier work; for potentiation of the action of GABA: native and all recombinant GABAA receptors studied to date.

Results on 5 compounds are retold here after patent publication US20050014834A1, “Selective anesthetic agents and methods of identifying the same” (priority 2001, published 2005).

As for `Cc1ncc2n1-c1ccc(Cl)cc1C(c1ccccc1F)=NC2` [midazolam], the “duration of LORR, knock-in versus wildtype mice” value in data set [1] (midazolam 80 mg/kg i.p., F1,28=0.61, p=0.44) was “no significant difference”.

In the case of `CCOC(=O)c1cncn1[C@H](C)c1ccccc1` [etomidate], the “sensitivity of mutant β2 (position 289) receptors” value in data set [2] is “insensitive”. In addition, the “EEG burst suppression (% of each minute EEG in suppression), wildtype versus knock-in” value in data set [3] is recorded as “no significant difference in the EEG pattern of both genotypes”. In addition, the “time until righting reflex had disappeared” value in data set [1] (after i.p. dosing 20, 30 or 40 mg/kg, 'usually') is reported as “around 90 seconds”. The “duration of LORR, knock-in versus wildtype mice” value in data set [1] (etomidate 20, 30 or 40 mg/kg i.p., F1,57=0.005, p=0.9498, FIG. 2) is “nearly significantly similar”. In addition, the “level of slow wave sleep versus circadian matched baseline after recovery” value was “not statistically different” in data set [4] (knock-in mice, P>0.05) and “enhanced level of sleep” in data set [4] (wildtype mice, up to 3 hours post recovery, ANOVA P<0.05). Also, the “rate of recovery of rotarod performance, wildtype versus knock-in” value in data set [5] (15 mg/kg i.p.) is recorded as “recovered rotarod performance at a similar rate”; in data set [5] (20 mg/kg and especially 30 mg/kg i.p.) it was “wildtype mice recovered more slowly than knock-in mice”. The “recovery of performance in the rotarod assay, β2N289S mice compared with wildtype” value in data set [5] (anesthetic doses) is given as “dramatically faster recovery”. The “time mice could stay on rotarod” value in data set [5] (knock-in mice, 15 mg/kg i.p.) is recorded as “approximately 120 seconds”; in data set [5] (wildtype mice, 15 mg/kg i.p.), “approximately 120 seconds”. Further, in data set [5] (wildtype mice, 15, 20, 30 mg/kg i.p., F18,243=5.80, p<0.00005, FIG. 3), the “effect of dose on rate of rotarod recovery” value is given as “clear effect on the rate of recovery with increasing dose”. In addition, in data set [6], the “effect of β3 N289S mutation on GABA-modulatory and GABA-mimetic effects” value is “strongly suppressed”. Also, the “β subunit preference of potentiation and direct activation of receptors” value in the data set on GABAA receptors (β2 or β3 versus β1 subunit) is recorded as “favours receptors containing either a β2 or a β3 subunit, versus a β1 subunit”.

`CC(=O)[C@H]1CC[C@H]2[C@@H]3CC[C@H]4C[C@H](O)CC[C@]4(C)[C@H]3C(=O)C[C@]12C` [alphaxalone]: in the data set with GABAA receptors, the “potentiation of the action of GABA” value is recorded as “markedly potentiate the action of GABA”.

With `CCCC(C)C1(CC)C(=O)NC(=O)NC1=O` (stereo not drawn) [pentobarbitone], in data set [1] (pentobarbitone 50 mg/kg i.p., F1,28=0.61, p=0.44), the “duration of LORR, knock-in versus wildtype mice” value is “no significant difference”.

On to `CC(C)c1cccc(C(C)C)c1O` [propofol], for which the “potentiation of the action of GABA” value in the data set on GABAA receptors is listed as “markedly potentiate the action of GABA”.
